Results published in patent US12410399B2, “Compositions and methods for treating retinal diseases” (The Regents of the University of California, priority 2011, dated 2025).

Assays:
hRPCs = experiment: hRPC culture medium and supplement comparison (yield, proliferation); assay type: cell-based, human; details: supplement added to culture medium every two days
Experimental: Various serum- and xeno-free cell culture media were tested to determine the optimum condition for propagating RPCs, including DMEM/FF12 (standard, Advanced and KnockOut; Invitrogen), Neurobasal (Invitrogen), Ultraculture (Lonza), and ReNcell (Chemicon). […] “SM” as provided herein refers to standard growth medium based on DMEM/FF12. “UL” is referred to herein as growth medium using Ultraculture as the base medium. Serum-free media was used in the absence of antibiotics or with antibiotics for first two weeks, followed by antibiotic-free media for about 6 weeks. No antifungal agents were used. […] For base medium, standard DMEM/F12, a media supplemented with N2 Supplement, growth factors, glutamine or GLUTAMAX™ (GlutaMax™), was compared with “Advanced DMEM/FF12”, supplemented in the same way.
The effects of cell culture supplementation were also explored. To that end, the N2 supplement was also compared with the B27 xeno-free supplement. […] The effects of additional vitamin C were also tested. A vitamin C supplement was added to the culture medium every two days. […] Finally, supplementation with albumin was tested.
The osmolarity of the cell culture medium was also examined by using media of differing osmolarity (osm), in combination with different commercially available supplements.

hRPC = experiment: steroid toxicity test on hRPCs (CCK-8 cytotoxicity); assay type: cell-based, human
Experimental: The cells were also subjected to a steroid toxicity test, since steroids are often used in patients at the time of transplantation.
Cell Counting Kit-8 (CCK-8; Dojindo Molecular Technologies Inc., Gaithersburg, MD) was used to determine cytotoxicity of RPCs. The kit uses WST-8, which, upon bioreduction in the presence of the electron carrier 1-methoxy PMS, produces a water-soluble colored formazan. Ninety-six well plates containing 90 μl of cell suspension per well were inoculated with 10 μl of CCK-8 pre-packaged solution. The plates were incubator for 2 hours and the OD450 of the supernatant was measured. Each experiment was performed in quadruplicate on at least three separate experiments.

Row | SMILES | improvement of hRPC yield (hRPCs) | effect on cell proliferation (hRPC; clinical doses) | effect on donor cell viability (hRPC; high doses (about >10 times the expected clinical dose))
1 | O=C1O[C@H]([C@@H](O)CO)C(O)=C1O [vitamin C] | approximately 30% |  | 
2 | CC1(C)O[C@@H]2C[C@H]3[C@@H]4CCC5=CC(=O)C=C[C@]5(C)[C@@]4(F)[C@@H](O)C[C@]3(C)[C@]2(C(=O)CO)O1 [triamcinolone acetonide] |  | did not appear to affect cell proliferation | may decrease donor cell viability
